Source: patent US10054581B1, “Inhibitors of notch signaling pathway and use thereof in treatment of cancers” (Ecole Polytechnique Federale de Lausanne (EPFL), priority 2011, dated 2018)
“Also recorded” adds a separate entry of the source.

How the values were obtained:
[1] = tested on: HCC1187; assay: Cell cycle analysis (Ki67 and Hoechst stain), HCC1187; assay type: cell-based, human; settings: 10 μM, 48 hours
Method: (§1) FIGS. 6A-6D show 6-(4-Tert-Butylphenoxy)Pyridin-3-Amine (I3) induces G0/G1 cell cycle arrest and apoptosis in human T cell acute lymphoblastic leukemia cell lines and human breast cancer cell line HCC1187. […] Percentage of Annexin V positive (apoptotic) cell population was measured using flow cytometry.
(§2) In addition to induction of apoptosis, the proliferative arrest observed in 6-(4-Tert-Butylphenoxy)Pyridin-3-Amine (I3) treated human leukemic cell lines and breast cancer cell line also appears to be due to cell cycle arrest in G0/G1 phase of the cell cycle. Leukemic cell lines (RPMI8402, KOPTK1 and TALL1) and breast cancer cell lines were treated with 6-(4-Tert-Butylphenoxy)Pyridin-3-Amine (I3) for 48 hours and cell cycle status was determined using Ki67 and Hoechst stain.

[2] = tested on: nRas driven melanoma cell lines; assay: Alamar blue proliferation assay, nRas driven melanoma cells; assay type: cell-based, human; settings: 10 μM, 4 days
Method: Human T-ALL cell lines RPMI 8402 and KOPTK1, and pancreatic cancer cell line PANC1 as well as nRas driven melanoma cells were seeded in a 96 well plate and treated with 10 μM concentration of 6-(4-Tert-Butylphenoxy)Pyridin-3-Amine (I3) and DAPT for several days. Their growth inhibitory effects were compared with cells treated with equal amount of DMSO. Using Alamar blue assay, the growth kinetics of RPMI 8402 and KOPTK1 were followed for upto 6 days, while PANC1 and nRas melanoma cells were monitored for 4 days. 6-(4-Tert-Butylphenoxy)Pyridin-3-Amine (I3) treatment of RPMI 8402, KOPTK1. […] Statistical analyses were done using student's t.test. *=p value<0.05. ns=not significant.
Alamarblue® proliferation assays were performed to determine the growth kinetics of Notch inhibitor treated cells. Alamar Blue® consists of a cell permeable substrate resazurin. In metabolically active and proliferating cells, resazurin is converted to resorufin due to an intrinsic reducing power of live cells and produces a red fluorescence. Therefore production of resorufin serves as an indicator of the viability of the cell population.
Proliferation assays were performed by seeding 5000 cells/well in a 96 well plate. Cells were treated with DMSO or Notch inhibitors for different time intervals. […] Alamarblue readout was taken using Tecan F500 (Tecan) multiplate reader. […]

[3] = tested on: TALL1; assay: Cell cycle analysis (Ki67 and Hoechst stain), TALL1; assay type: cell-based, human; settings: 10 μM
Method: as §1, §2

[4] = tested on: Wnt signalling (β-catenin-TCF/LEF driven luciferase); assay: Wnt signalling TOP-luciferase assay in HeLa cells; assay type: cell-based; settings: HeLa cells co-transfected with β-catenin and TOP-luciferase
From the text: One of the concerns about the activity of the chemical compound 6-(4-Tert-Butylphenoxy)Pyridin-3-Amine (I3) is its specificity towards the Notch signalling pathway. In order to test whether 6-(4-Tert-Butylphenoxy)Pyridin-3-Amine (I3) could also block other developmental pathways, Applicants have tested its ability to block the Wnt and Hedgehog signalling pathways. In summary, to measure Wnt signalling, HeLa cells were transfected with a plasmid containing a promoter consisting of TCF/LEF binding sites and thereby driving the expression of a luciferase gene (TOP-luciferase). To activate the Wnt pathway, a plasmid encoding for β-catenin was co-transfected into HeLa cells. The co-transfected cells were incubated in the presence or absence of the 6-(4-Tert-Butylphenoxy)Pyridin-3-Amine (I3) chemical compound. Transient introduction of β-catenin leads to an upregulation of Wnt signalling as measured by β-catenin-TCF/LEF driven luciferase activity.

[5] = tested on: primary human TALL samples; assay: Primary human TALL samples treated with I3; assay type: cell-based
From the text: To further investigate the Notch inhibitory effect of 6-(4-Tert-Butylphenoxy)Pyridin-3-Amine (I3) in a relevant pathological condition, primary human TALL samples were profiled for the activation of Notch signalling. An accumulation of active form of Notch (NICD) was used as a biomarker for pathway activation.

[6] = tested on: intestinal tissue (goblet cells); assay: Intestinal toxicity in mice (Alcian blue staining for goblet cells); assay type: in vivo, mouse
[7] = Body weight changes in mice; assay type: in vivo, mouse; settings: 25 mg/kg, 5 consecutive days
Method: C57B16 mice were intra peritoneal (i.p) injected with oil or 25 mg/kg of I3 or 10 mg/kg of CPA, once a day for 5-7 days. Mice were weighed using a weighing scale on day 0, day 3 and day 5. On day 8, intestinal tissue, spleen and thymus were harvested for analyses.
In in vitro culture assays, chemical compound 6-(4-Tert-Butylphenoxy)Pyridin-3-Amine (I3) was able to block Notch1 and Notch2 mediated pathway activation. Therefore, Applicants hypothesized that treatment of mice with 6-(4-Tert-Butylphenoxy)Pyridin-3-Amine (I3) may lead to a goblet cell metaplasia of the intestine. To test this hypothesis, mice were intra peritoneally (i.p) injected with 25 mg/kg of 6-(4-Tert-Butylphenoxy)Pyridin-3-Amine (I3) for 7 consecutive days. On day 8, animals were sacrificed and intestinal tissues were fixed and embedded in paraffin. Histological analyses were carried out using Alcian blue to stain for goblet cells. […] Similarly, the effect of 6-(4-Tert-Butylphenoxy)Pyridin-3-Amine (I3) on body weight changes was also monitored. Mice were injected for 5 consecutive days with 25 mg/kg of 6-(4-Tert-Butylphenoxy)Pyridin-3-Amine (I3) and the changes in body mass were recorded.

[8] = primary human TALL with accumulation of NICD

Question: With CC(C)(C)c1ccc(Oc2ccc(N)cn2)cc1 [I3, 6-(4-Tert-Butylphenoxy)Pyridin-3-Amine] as the compound, how does the cell cycle status [1] read?
Answer: induces an arrest in the G0/G1 phase of the cell cycle

Question: What about the “proliferation (Alamar blue)” value [2] of the same compound?
Answer: significantly inhibited the growth; also recorded: caused a significant reduction in their growth potential

Question: What about the cell cycle status ([3]; 48 hours) of the same compound?
Answer: induces an arrest in the G0/G1 phase of the cell cycle

Question: And the “increase in cells arrested in G0/G1 phase of the cell cycle” value ([3]; stated jointly for RPMI8402, KOPTK1 and TALL1)?
Answer: 20-30%

Question: And the Wnt pathway activation [4]?
Answer: does not block the Wnt pathway activation

Question: What about the response to treatment ([5]; primary human TALL samples without detectable levels of NICD) of the same compound?
Answer: did not respond

Question: What about the NICD protein [5, 8] of the same compound?
Answer: leads to a downregulation of this protein

Question: And the proliferation [5, 8]?
Answer: correlates with a proliferative arrest

Question: And the “intestinal architecture / goblet cell metaplasia” value ([6]; C57B16 mice, 25 mg/kg i.p., 7 consecutive days, analysed day 8, 25 mg/kg)?
Answer: completely normal with intact architecture and no indication of goblet cell metaplasia; also recorded: did not perturb intestinal homeostasis and without any indication of goblet cell accumulation

Question: And the “goblet cell numbers and intestinal architecture” value ([6]; NOD/SCID γc−/− mice with RPMI 8402 xenotransplant, treated for 27 days)?
Answer: did not reveal any abnormality in the goblet cell numbers and intestinal architecture

Question: And the body weight [7]?
Answer: did not cause a loss in the body weight
